Where “and” joins values, the source holds several entries; their conditions need not be identical. Equal entries are not always repeated. Calls of active or inactive are those of the source.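 The calls were made as follows: active = compounds giving half or more protection of infected cells from virus-caused growth loss, again on retest; inactive = the rest.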
System: CEM cells HIV-1 protection, formazan growth assay
Test: NCI AIDS Antiviral Assay
Conditions: for IC50: measured here: growth of uninfected CEM cells
Summary of the method: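 Category rules: moderately active means at least 50% protection on retest, and confirmed active means 100% protection reproducibly. The underlying data came from a formazan growth assay in HIV-1-infected CEM cells.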

## N#CC1(Cc2ccccc2Cl)c2ccccc2C=CN1C(=O)c1ccccc1 (centres undefined)
  outcome: inactive

## CN(CCCNc1ccc2ncn3c4ccccc4c(=O)c1c23)CCCN1C(=O)c2cccc3cc([N+](=O)[O-])cc(c23)C1=O
  EC50: 0.01 µM
  IC50: 0.0316 µM

## CCC(COC(=O)CC[C@@H](NC(=O)C(C)NC(=O)C(C)OC1C(O)C(CO)OC(OCc2ccccc2)C1NC(C)=O)C(N)=O)NC1c2ccccc2Nc2cccc([N+](=O)[O-])c21 (some centres undefined)
  EC50: > 200 µM
  IC50: 145 µM

## NCCC1C2CC3CC(C2)CC1C3 (centres undefined)
  outcome: inactive

## CN1CCC2(CC1)C(=NC1CCCCC1)NC(=S)N2c1ccccc1
  EC50: > 100 µM
  IC50: > 100 µM

## Cc1c2ccccc2nc(CS(=O)c2ccccc2)[n+]1[O-] (centres undefined)
  EC50: > 200 µM
  IC50: 186 µM

## N#C/C(=C\c1ccc(Cl)cc1)c1nc2ccccc2c(=O)[nH]1
  outcome: inactive

## CCCCC(C(=O)CCC(=O)Nc1ccc(Cl)c(Cl)c1)C(=O)C(C)C (centres undefined)
  EC50: > 324 µM
  IC50: 275 µM

## NS(=O)(=O)c1ccc(Nc2c3ccc(Cl)cc3nc3ncccc23)cc1
  outcome: inactive

## COc1ccc2nc3cc([N+](=O)[O-])ccc3c(NCCCN(C)C)c2c1
  EC50: > 2 µM
  IC50: 0.38 µM

## CN1c2ccccc2N(C)C2C1N(C)c1ccccc1N2C (centres undefined)
  EC50: > 64.6 µM
  IC50: 11 µM

## COc1ccccc1Cc1nc(-c2ccccc2)nn(C2OC(COC(C)=O)C(OC(C)=O)C(OC(C)=O)C2OC(C)=O)c1=S (centres undefined)
  outcome: inactive

## O=S1(=O)OC(c2cc(Br)c(O)c(Br)c2)(c2cc(Br)c(O)c(Br)c2)c2ccccc21
  outcome: inactive

## Cc1ccc(NC(=O)CCC(=O)C(C#N)c2ccc(Cl)cc2)cc1C (centres undefined)
  EC50: > 708 µM
  IC50: > 708 µM

## O=c1[nH]c2ccccc2nc1/C=C\NC(=S)Nc1cc(Cl)ccc1Cl
  EC50: > 200 µM
  IC50: 112 µM

## O=C(NCCc1c(-c2ccccc2)[nH]c2ccccc12)C(F)(F)C(F)(F)F
  EC50: > 200 µM
  IC50: 25.7 µM

## S=C(N/N=C(/c1ccccc1)c1ccccn1)Nc1ccccc1Cl
  EC50: > 0.2 µM
  IC50: 0.0871 µM

## CC(=O)NC1=N/C(=C/c2cc([N+](=O)[O-])ccc2O)CN1C
  EC50: > 200 µM
  IC50: > 200 µM

## COC(=O)/C=C\C(=O)/C=C/COC(=O)c1ccccc1
  EC50: > 132 µM
  IC50: 20.9 µM

## NNC(=O)CC(=O)Nc1cccc(Cl)c1
  EC50: > 200 µM
  IC50: 120 µM

## O=C(CSc1nnc(-c2ccc(N=Cc3ccc(Cl)cc3)cc2)o1)Nc1cccc([N+](=O)[O-])c1
  EC50: > 5.5 µM
  IC50: 2.24 µM

## O=C1CCC2(c3ccc(Cl)cc3)Nc3ncccc3N12 (centres undefined)
  EC50: > 126 µM
  IC50: 97.7 µM

## COC(=O)c1ccc[c]([Sb](=[O])([OH])[OH])c1
  EC50: > 200 µM
  IC50: 91.2 µM

## CC(=O)/C(=C\n1c(=S)[nH]c2ccc([N+](=O)[O-])cc21)C(=O)Nc1ccccc1C
  EC50: > 200 µM
  IC50: 89.1 µM

## Cc1ccccc1NC(=S)N/N=C(/c1ccccc1)c1ccccn1
  EC50: > 0.2 µM
  IC50: 0.0676 µM

## O=C(O)c1ccccc1C1c2ccccc2Oc2ccccc21
  EC50: > 200 µM
  IC50: 35.5 µM

## Cc1cc(C)c(-c2c(O)c(O)c(-c3ccccc3)c3ccccc23)c(C)c1
  EC50: > 200 µM
  IC50: 7.76 µM

## O=S(=O)(CC(Cl)c1ccccc1)c1nc2ccccc2s1 (centres undefined)
  EC50: > 200 µM
  IC50: 2.14 µM

## N#Cc1ccc(Sc2nc3ccccc3[nH]2)cc1
  outcome: inactive

## CC(/C(=N/NC(=O)C(N)=O)c1c(Cl)ccc(Cl)c1O)C1(O)C(=O)Nc2ccccc21 (centres undefined)
  EC50: > 11.5 µM
  IC50: > 11.5 µM

## CC1(C)CC(Nc2ccc(Nc3ccccc3)cc2)CC(C)(C)N1
  EC50: > 562 µM
  IC50: 4.27 µM

## NS(=O)(=O)c1cc[c]([Sb](=[O])([OH])[OH])cc1
  EC50: > 200 µM
  IC50: > 200 µM

## O=C1/C(=N\S(=O)(=O)c2ccccc2)C([n+]2ccc(Cc3ccccc3)cc2)=C([O-])c2ccccc21
  EC50: > 200 µM
  IC50: 2.63 µM

## COc1ccc(C(c2ccc(C(C)C)cc(=O)c2O)c2ccc3cccnc3c2O)cc1 (centres undefined)
  outcome: inactive

## Brc1ccc2c(C3CN[C@@H](c4c[nH]c5cc(Br)ccc45)CN3)c[nH]c2c1 (some centres undefined)
  EC50: > 100 µM
  IC50: 4.57 µM

## CC1=C(C)SC(=C2Sc3c(n(C)c(=O)n(C)c3=O)S2)S1
  EC50: 182 µM
  IC50: > 200 µM

## CC(=O)/C(=C\c1cccc([N+](=O)[O-])c1)C(=O)Nc1ccccc1C
  EC50: > 22.4 µM
  IC50: > 22.4 µM

## CC(C)(C)c1cc(Cc2ccc([N+](C)(C)C)cc2)c(O)c(C(C)(C)C)c1
  outcome: inactive

## C/C=C/C=N/N(c1nnc(-c2ccccc2)c(-c2ccccc2)n1)S(=O)(=O)c1ccc(C)cc1
  EC50: > 21.4 µM
  IC50: 7.59 µM

## Cc1ccccc1OCC1COC(c2ccc(Cl)cc2)O1 (centres undefined)
  EC50: > 200 µM
  IC50: > 200 µM

## COc1cc(/C=C2/C(=O)N=C(NC(C)=O)N2C)ccc1OC(C)=O
  EC50: > 200 µM
  IC50: > 200 µM

## O=C(N/N=C(\c1nc2ccc(Cl)cc2[nH]c1=O)C(O)c1ccccc1Cl)c1ccncc1 (centres undefined)
  EC50: > 537 µM
  IC50: > 537 µM

## N/C(=N/N=C/c1cc(Cl)ccc1O)N/N=C\c1cc(Cl)ccc1O
  EC50: > 2 µM
  IC50: 1 µM

## CC(=O)NC1CCC(NC(=O)OC(C)(C)C)C(NC(=O)OC(C)(C)C)C1 (centres undefined)
  EC50: > 200 µM
  IC50: > 200 µM

## CC(C)CN(CC(C)C)C(=O)C1CCCC[C@@H]1C(=O)O (some centres undefined)
  EC50: > 891 µM
  IC50: > 891 µM

## COC(=O)C1=C(C)N2[C@H](C(=O)O)CO[C@@]2(C)[C@H](C(=O)OC)[C@H]1c1cccc([N+](=O)[O-])c1
  EC50: > 200 µM
  IC50: > 200 µM

## Cc1ccc(-n2c(Cn3nnc(-c4cccnc4)n3)nn(C3OC(COC(=O)c4ccccc4)C(OC(=O)c4ccccc4)C3OC(=O)c3ccccc3)c2=S)cc1C (centres undefined)
  EC50: > 100 µM
  IC50: > 100 µM

## CCOC(=O)CSc1nc(N)c2c(-c3ccccc3)c3c(nc2n1)CCCC3
  EC50: > 200 µM
  IC50: > 200 µM

## O=C(O)C1Cc2c([nH]c3ccccc23)C(C2CCNC2=S)N1 (centres undefined)
  outcome: inactive

## CC(/C=C/c1ccccc1)=Nc1ccccc1
  EC50: > 23.4 µM
  IC50: > 23.4 µM

## O=c1[nH]c2nc3ccccc3nc2[nH]c1=O
  IC50: > 200 µM and 151 µM

## CN(C)c1nc(=NCc2ccncc2)ss1
  EC50: > 200 µM
  IC50: 10.7 µM

## CC(=O)NC(CCC(=O)c1ccc(Cl)cc1Cl)(C(=O)O)C(=O)O
  EC50: > 200 µM
  IC50: > 200 µM

## CCNc1nc2c(=O)n(C)c(=O)n(C)c2s1
  EC50: > 186 µM
  IC50: > 186 µM

## OC1/C(=C/c2ccccc2)CNC/C1=C\c1ccccc1 (centres undefined)
  EC50: > 129 µM
  IC50: 79.4 µM

## CC(=O)N(C[C@H]1CN(Cc2ccccc2)CC[C@H]1O)C12CC3CC(CC(C3)C1)C2
  EC50: > 91.2 µM
  IC50: 69.2 µM

## CC1OC(OCC2OC(Oc3ccc(C4CC(=O)c5c(O)cc(O)cc5O4)cc3O)C(O)C(O)C2O)C(O)C(O)C1O (centres undefined)
  EC50: > 200 µM
  IC50: > 200 µM

## CSC1N=CNc2c1sc(=S)n2-c1ccccc1 (centres undefined)
  EC50: > 33.9 µM
  IC50: > 33.9 µM

## COc1cccc(/C=N/[N-]C(N)=O)c1[O-].[Cu+2].[OH3+]
  EC50: > 64.6 µM
  IC50: 10.5 µM

## c1cnc2c3cnc4sccc4c3nn2c1
  EC50: > 74.1 µM
  IC50: > 74.1 µM

## CC1CN=C(NCc2ccccc2)S1 (centres undefined)
  EC50: > 200 µM
  IC50: > 200 µM

## Cc1cc(=O)[nH]c(CNC(=O)Cc2ccccc2)n1
  EC50: > 977 µM
  IC50: > 977 µM

## S=c1nc(N2CCCCC2)ss1
  outcome: inactive

## Nc1nc2ccc(Sc3ccc4nc(N)[nH]c(=O)c4c3)cc2c(=O)[nH]1
  EC50: > 100 µM
  IC50: > 100 µM

## Nc1ncn2c(n1)nc1ccccc12
  EC50: > 200 µM
  IC50: > 200 µM

## COc1ccc(-c2c(-c3ccc(OC)cc3)n3c(=O)n(C)c(=O)n23)cc1
  EC50: > 200 µM
  IC50: 79.4 µM

## O=[N+]([O-])CC1CCCCC1O (centres undefined)
  EC50: > 200 µM
  IC50: 115 µM

## O=c1onc2n1-c1ccc(Cl)cc1C(=S)N1CSCC21 (centres undefined)
  EC50: > 200 µM
  IC50: 32.4 µM

## COc1ccc(/C=C/C(=O)c2cc(CN(C)C)c(O)c(CN(C)C)c2)cc1
  EC50: > 200 µM
  IC50: 40.7 µM

## C/C(O)=C(/C=N\C(=S)Nc1ccc(S(=O)(=O)Nc2nccs2)cc1)C(=O)Nc1ccccc1C
  EC50: > 200 µM
  IC50: 30.2 µM

## CCCS(=O)OC1C(C2COC(C)(C)O2)OC2OC(C)(C)OC21 (centres undefined)
  EC50: > 200 µM
  IC50: 95.5 µM

## CN(C)CCCNC(=O)c1cc(NC(=O)c2cc(NC(=O)c3cc(NC(=O)CCCn4ccc(CO)c4CO)cn3C)cn2C)cn1C
  EC50: > 20 µM
  IC50: 0.38 µM

## O=C1/C(=C/c2ccc(O)c(CN3CCCCC3)c2)CCC/C1=C\c1ccc(O)c(CN2CCCCC2)c1
  outcome: inactive

## Nc1ccn(C2OC(CO)C(O)C2Br)c(=O)n1 (centres undefined)
  EC50: > 200 µM
  IC50: 0.0631 µM

## Cn1c(=O)n2n(c1=O)Cc1cccc3cccc(c13)C2
  EC50: > 200 µM
  IC50: > 200 µM

## Clc1nnc(-c2ccccc2)s1
  EC50: > 200 µM
  IC50: 87.1 µM

## N#CC1C(=O)Nc2cccnc21 (centres undefined)
  EC50: > 1580 µM
  IC50: 832 µM

## C[C@@]1(C(=O)O)CCC[C@@]2(C)C1[C@H](OC(=O)c1ccccc1)CC1CC3CC12CC[C@@]3(C)O (some centres undefined)
  EC50: > 282 µM
  IC50: 58.9 µM

## Cc1nn(C(=O)c2ccc(Cl)cc2)c2c1C(c1ccc(Cl)cc1)SC(N)=N2 (centres undefined)
  EC50: > 200 µM
  IC50: 36.3 µM

## O=S(=O)(N1CCCCN(S(=O)(=O)C(F)(F)F)CCCN(S(=O)(=O)C(F)(F)F)CCCN(S(=O)(=O)C(F)(F)F)CCCCN(S(=O)(=O)C(F)(F)F)CCCN(S(=O)(=O)C(F)(F)F)CCC1)C(F)(F)F
  EC50: > 200 µM
  IC50: > 200 µM

## CC(C)[C@H](NC(=O)OCc1ccccc1)C(=O)N[C@H](/C=C/C(=O)OC(C)(C)C)CO
  EC50: > 200 µM
  IC50: 97.7 µM

## C=C1CCC23CC(CC[C@@H]2[C@@]12C[C@@H](c1ccoc1)OC2=O)OC3=O (some centres undefined)
  EC50: > 79.4 µM
  IC50: > 79.4 µM

## CCOc1ccc(/C=C2/C(=O)N(/C=C3/C(=O)Oc4ccccc4C3=O)C(=NC(C)=O)N2C)cc1
  EC50: > 200 µM
  IC50: > 200 µM

## C[N+](C)(C)CC(=O)N/N=C(/Cc1nc2c3c(ccc2[nH]c1=O)C(=O)c1ccccc1C3=O)C(=O)Nc1ccc(Cl)c(Cl)c1
  EC50: > 20.9 µM
  IC50: > 20.9 µM

## Nc1ncnc2c1ncn2CC(=O)NCCCO
  EC50: > 200 µM
  IC50: > 200 µM

## COC(=O)C1([Se]c2ccccc2)CCN2CCC(OCc3ccccc3[N+](=O)[O-])C21 (centres undefined)
  EC50: > 200 µM
  IC50: > 200 µM
